Laboratory results reported in ChEMBL document CHEMBL1130853, “Synthesis and biological properties of new 1 beta-methylcarbapenems” (Bioorg Med Chem Lett, 1998).
Values after ≈ are worked out from the molar mass of the structure shown.

Columns and labels:
[1] = Antibacterial activity against Enterobacter cloacae 1321E; format: functional
Escherichia coli [2] = test: microbe, parasite or virus in culture; format: functional
Description: Antibacterial activity against Escherichia coli 1507E

Pseudomonas aeruginosa [3] = test: microbe, parasite or virus in culture; format: functional
Description: Compound was evaluated for antibacterial activity against Pseudomonas aeruginosa 1592E

Pseudomonas aeruginosa [4] = test: microbe, parasite or virus in culture; format: functional; remark: listed apart in the source
Description: Antibacterial activity against Pseudomonas aeruginosa 1771M

Salmonella typhimurium = test: Antibacterial activity against Salmonella Typhimurium; format: functional, Salmonella enterica subsp. enterica serovar Typhimurium; details: Salmonella enterica
Staphylococcus aureus = test: Antibacterial activity against Staphylococcus aureus SG 511; format: functional
Streptococcus pyogenes [5] = test: Antibacterial activity against Streptococcus pyogenes 77A; format: functional
Enterococcus faecium = test: Antibacterial activity against Streptococcus faecium MD 8b; format: functional
Klebsiella aerogenes = test: Antibacterial activity against Klebsiella aerogenes 1522E; format: functional
[6] = Time taken by the compound to reach maximum concentration.; format: ADME
[7] = target: T1, Dipeptidase 1 (Sus scrofa) (UniProt P22412); test: Compound was evaluated for relative rate of hydrolysis to imipenem by partially purified porcine renal Dehydropeptidase-1; design: scale not given: the % may be the effect or the level left
T1 sequence (whole entry): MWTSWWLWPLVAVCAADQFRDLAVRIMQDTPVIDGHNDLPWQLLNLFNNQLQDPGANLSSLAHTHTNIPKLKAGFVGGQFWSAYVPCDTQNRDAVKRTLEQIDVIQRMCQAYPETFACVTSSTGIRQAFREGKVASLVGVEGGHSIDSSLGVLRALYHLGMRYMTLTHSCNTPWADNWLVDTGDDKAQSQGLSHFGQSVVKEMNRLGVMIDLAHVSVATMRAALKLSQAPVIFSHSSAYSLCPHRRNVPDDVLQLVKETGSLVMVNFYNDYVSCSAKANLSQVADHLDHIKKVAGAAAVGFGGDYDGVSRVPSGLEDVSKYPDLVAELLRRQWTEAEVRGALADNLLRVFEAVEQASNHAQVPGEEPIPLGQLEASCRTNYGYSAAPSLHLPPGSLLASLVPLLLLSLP

Escherichia coli [8] = test: Compound was tested for in vivo protective activity against Escherichia coli 078 at a single subcutaneous administration in mice.; format: functional; details: sc, read-out: PD50
Pseudomonas aeruginosa [9] = test: Compound was tested for in vivo protective activity against Pseudomonas aeruginosa 1771M at a single subcutaneous administration in mice.; format: functional; details: sc, read-out: PD50
Streptococcus pyogenes [10] = test: Compound was tested for in vivo protective activity against Streptococcus pyogenes 77A at a single subcutaneous administration in mice.; format: functional; details: sc, read-out: PD50

| SMILES | MIC [1] [µg/mL] | MIC (Escherichia coli [2]) [µg/mL] | MIC (Pseudomonas aeruginosa [3]) [µg/mL] | MIC (Pseudomonas aeruginosa [4]) [µg/mL] | MIC (Salmonella typhimurium) [µg/mL] | MIC (Staphylococcus aureus) [µg/mL] | MIC (Streptococcus pyogenes [5]) [µg/mL] | MIC (Enterococcus faecium) [µg/mL] | MIC (Klebsiella aerogenes) [µg/mL] | Tmax [6] [min] | Stability [7] [%] | ED50 (Escherichia coli [8]) [mg/kg] | ED50 (Pseudomonas aeruginosa [9]) [mg/kg] | ED50 (Streptococcus pyogenes [10]) [mg/kg] |
| --- | --- | --- | --- | --- | --- | --- | --- | --- | --- | --- | --- | --- | --- | --- |
| C[C@@H](O)[C@H]1C(=O)N2C(C(=O)O)=C(S[C@@H]3CN[C@H](C(=O)NCCS(=O)(=O)N4CCOCC4)C3)[C@H](C)[C@H]12 | 0.049 (≈ 0.092 µM) | 0.049 (≈ 0.092 µM) | 50 (≈ 93.9 µM) | 1.56 (≈ 2.93 µM) | 0.098 (≈ 0.184 µM) | 0.391 (≈ 0.734 µM) | 0.013 (≈ 0.0244 µM) | 12.5 (≈ 23.5 µM) | 0.098 (≈ 0.184 µM) | – | – | – | – | – |
| C[C@@H](O)[C@H]1C(=O)N2C(C(=O)O)=C(S[C@@H]3CN[C@H](C(=O)NCCS(=O)(=O)N4CCCC4)C3)[C@H](C)[C@H]12 | 0.013 (≈ 0.0252 µM) | 0.013 (≈ 0.0252 µM) | 6.25 (≈ 12.1 µM) | 0.391 (≈ 0.757 µM) | 0.025 (≈ 0.0484 µM) | 0.098 (≈ 0.19 µM) | 0.004 (≈ 0.00774 µM) | 6.25 (≈ 12.1 µM) | 0.025 (≈ 0.0484 µM) | – | – | – | – | – |
| CNS(=O)(=O)CCNC(=O)[C@@H]1C[C@H](SC2=C(C(=O)O)N3C(=O)[C@H]([C@@H](C)O)[C@H]3[C@H]2C)CN1 | 0.025 (≈ 0.0525 µM) | 0.025 (≈ 0.0525 µM) | 0.391 (≈ 0.82 µM) | 0.369 (≈ 0.774 µM) | 0.025 (≈ 0.0525 µM) | 0.195 (≈ 0.409 µM) | 0.013 (≈ 0.0273 µM) | 12.5 (≈ 26.2 µM) | 0.049 (≈ 0.103 µM) | – | – | – | – | – |
| C[C@@H](O)[C@H]1C(=O)N2C(C(=O)O)=C(S[C@@H]3CN[C@H](C(=O)NCCS(=O)(=O)NCCO)C3)[C@H](C)[C@H]12 | 0.025 (≈ 0.0493 µM) | 0.025 (≈ 0.0493 µM) | 0.391 (≈ 0.772 µM) | 0.391 (≈ 0.772 µM) | 0.049 (≈ 0.0967 µM) | 0.195 (≈ 0.385 µM) | 0.007 (≈ 0.0138 µM) | 12.5 (≈ 24.7 µM) | 0.049 (≈ 0.0967 µM) | – | – | – | – | – |
| C[C@@H](O)[C@H]1C(=O)N2C(C(=O)O)=C(S[C@@H]3CN[C@H](C(=O)NCCS(=O)(=O)N(C)C)C3)[C@H](C)[C@H]12 | 0.025 (≈ 0.051 µM) | 0.025 (≈ 0.051 µM) | 1.56 (≈ 3.19 µM) | 0.195 (≈ 0.397 µM) | 0.049 (≈ 0.0999 µM) | 0.195 (≈ 0.397 µM) | 0.007 (≈ 0.0143 µM) | 12.5 (≈ 25.5 µM) | 0.049 (≈ 0.0999 µM) | – | – | – | – | – |
| C[C@@H](O)[C@H]1C(=O)N2C(C(=O)O)=C(S[C@@H]3CN[C@H](C(=O)N(C)C)C3)[C@H](C)[C@H]12 [MEROPENEM] | 0.025 (≈ 0.0652 µM) | 0.025 (≈ 0.0652 µM) | 0.195 (≈ 0.509 µM) | 0.049 (≈ 0.128 µM) | 0.025 (≈ 0.0652 µM) | 0.098 (≈ 0.256 µM) | 0.002 (≈ 0.00522 µM) | 12.5 (≈ 32.6 µM) | 0.049 (≈ 0.128 µM) | 12.6 | 3200 | 1.24 | 1.76 | 7.16 |
| C[C@@H](O)[C@H]1C(=O)N2C(C(=O)O)=C(S[C@@H]3CN[C@H](C(=O)NCCC(N)=O)C3)[C@H](C)[C@H]12 | 0.025 (≈ 0.0586 µM) | 0.025 (≈ 0.0586 µM) | 0.391 (≈ 0.917 µM) | 0.195 (≈ 0.457 µM) | 0.049 (≈ 0.115 µM) | 0.195 (≈ 0.457 µM) | 0.007 (≈ 0.0164 µM) | 12.5 (≈ 29.3 µM) | 0.049 (≈ 0.115 µM) | – | 2600 | – | – | – |
| C[C@@H](O)[C@H]1C(=O)N2C(C(=O)O)=C(S[C@@H]3CN[C@H](C(=O)NCCC(=O)NCCO)C3)[C@H](C)[C@H]12 | 0.025 (≈ 0.0531 µM) | 0.049 (≈ 0.104 µM) | 0.391 (≈ 0.831 µM) | 0.391 (≈ 0.831 µM) | 0.098 (≈ 0.208 µM) | 0.391 (≈ 0.831 µM) | 0.007 (≈ 0.0149 µM) | 12.5 (≈ 26.6 µM) | 0.098 (≈ 0.208 µM) | – | – | – | – | – |
| C[C@@H](O)[C@H]1C(=O)N2C(C(=O)O)=C(S[C@@H]3CN[C@H](C(=O)NCCS(=O)(=O)N(C)CCO)C3)[C@H](C)[C@H]12 | 0.025 (≈ 0.048 µM) | 0.025 (≈ 0.048 µM) | 1.56 (≈ 3 µM) | 0.781 (≈ 1.5 µM) | 0.049 (≈ 0.0941 µM) | 0.391 (≈ 0.751 µM) | 0.013 (≈ 0.025 µM) | 12.5 (≈ 24 µM) | 0.049 (≈ 0.0941 µM) | – | – | – | – | – |
| C[C@@H](O)[C@H]1C(=O)N2C(C(=O)O)=C(S[C@@H]3CN[C@H](C(=O)NCCS(N)(=O)=O)C3)[C@H](C)[C@H]12 | 0.025 (≈ 0.054 µM) | 0.013 (≈ 0.0281 µM) | 0.195 (≈ 0.422 µM) | 0.195 (≈ 0.422 µM) | 0.025 (≈ 0.054 µM) | 0.098 (≈ 0.212 µM) | 0.004 (≈ 0.00865 µM) | 6.25 (≈ 13.5 µM) | 0.049 (≈ 0.106 µM) | < 19.8 | 2400 | 0.47 | 2.6 | 2.31 |
| CNC(=O)CCNC(=O)[C@@H]1C[C@H](SC2=C(C(=O)O)N3C(=O)[C@H]([C@@H](C)O)[C@H]3[C@H]2C)CN1 | 0.025 (≈ 0.0568 µM) | 0.025 (≈ 0.0568 µM) | 0.781 (≈ 1.77 µM) | 0.391 (≈ 0.888 µM) | 0.049 (≈ 0.111 µM) | 0.391 (≈ 0.888 µM) | 0.013 (≈ 0.0295 µM) | 12.5 (≈ 28.4 µM) | 0.049 (≈ 0.111 µM) | – | – | – | – | – |
| C[C@@H](O)[C@H]1C(=O)N2C(C(=O)O)=C(SCCNC=N)C[C@H]12 [IMIPENEM ANHYDROUS] | 0.195 (≈ 0.651 µM) | 0.195 (≈ 0.651 µM) | 0.781 (≈ 2.61 µM) | 0.195 (≈ 0.651 µM) | 0.781 (≈ 2.61 µM) | 0.013 (≈ 0.0434 µM) | 0.004 (≈ 0.0134 µM) | 1.56 (≈ 5.22 µM) | 0.391 (≈ 1.31 µM) | – | 10000 | – | – | – |
| COC(=O)CCNC(=O)[C@@H]1C[C@H](SC2=C(C(=O)O)N3C(=O)[C@H]([C@@H](C)O)[C@H]3[C@H]2C)CN1 | 0.025 (≈ 0.0566 µM) | 0.025 (≈ 0.0566 µM) | 1.56 (≈ 3.54 µM) | 0.195 (≈ 0.442 µM) | 0.049 (≈ 0.111 µM) | 0.195 (≈ 0.442 µM) | 0.007 (≈ 0.0159 µM) | 12.5 (≈ 28.3 µM) | 0.049 (≈ 0.111 µM) | – | – | – | – | – |
| C[C@@H](O)[C@H]1C(=O)N2C(C(=O)O)=C(S[C@@H]3CN[C@H](C(=O)NCCC(=O)N4CCCC4)C3)[C@H](C)[C@H]12 | 0.025 (≈ 0.052 µM) | 0.025 (≈ 0.052 µM) | 6.25 (≈ 13 µM) | 0.781 (≈ 1.63 µM) | 0.049 (≈ 0.102 µM) | 0.195 (≈ 0.406 µM) | 0.007 (≈ 0.0146 µM) | 12.5 (≈ 26 µM) | 0.049 (≈ 0.102 µM) | – | – | – | – | – |
| C=CCNS(=O)(=O)CCNC(=O)[C@@H]1C[C@H](SC2=C(C(=O)O)N3C(=O)[C@H]([C@@H](C)O)[C@H]3[C@H]2C)CN1 | 0.025 (≈ 0.0497 µM) | 0.025 (≈ 0.0497 µM) | 1.56 (≈ 3.11 µM) | 0.781 (≈ 1.55 µM) | 0.049 (≈ 0.0975 µM) | 0.195 (≈ 0.388 µM) | 0.007 (≈ 0.0139 µM) | 6.25 (≈ 12.4 µM) | 0.049 (≈ 0.0975 µM) | – | – | – | – | – |
| C[C@@H](O)[C@H]1C(=O)N2C(C(=O)O)=C(S[C@@H]3CN[C@H](C(=O)NCCC(=O)O)C3)[C@H](C)[C@H]12 | 0.049 (≈ 0.115 µM) | 0.049 (≈ 0.115 µM) | 6.25 (≈ 14.6 µM) | 3.12 (≈ 7.31 µM) | 0.098 (≈ 0.229 µM) | 1.56 (≈ 3.66 µM) | 0.049 (≈ 0.115 µM) | 50 (≈ 117 µM) | 0.098 (≈ 0.229 µM) | – | – | – | – | – |
| C[C@@H](O)[C@H]1C(=O)N2C(C(=O)O)=C(S[C@@H]3CN[C@H](C(=O)NCCC(=O)N(C)C)C3)[C@H](C)[C@H]12 | 0.025 (≈ 0.055 µM) | 0.025 (≈ 0.055 µM) | 1.56 (≈ 3.44 µM) | 0.391 (≈ 0.86 µM) | 0.049 (≈ 0.108 µM) | 0.195 (≈ 0.429 µM) | 0.007 (≈ 0.0154 µM) | 12.5 (≈ 27.5 µM) | 0.049 (≈ 0.108 µM) | – | – | – | – | – |
